Data taken from patent US20260000763A1, “Methods of Manufacturing Therapeutic Cells” (The Board of Trustees of the Leland Stanford Junior …, priority 2022, published 2026).
“Also recorded” adds a separate entry of the source.

Tests used:
HA CAR T cells = assay: Phenotype of tonically signaling (exhausted) HA CAR T cells expanded in inosine media (flow cytometry, CyTOF); assay type: cell-based, human; conditions: for CD62L expression / frequency of central memory cells: CD8+ HA-CAR T cells, day 21, INO in presence or absence of glucose
Description: A: CD4+vs CD8+ ratio at day 14 post-activation. N-7 donors. P values were determined by paired two-tailed t-tests. […] C: IL-2 and IFNγ secretion at day 14 post-activation. P values were determined by unpaired two-tailed t-tests.
In this example, CAR T cells were cultured in control media until day 4 post activation, followed by continued expansion in regular or inosine-containing media. Phenotype of the cells was assessed by flow cytometry at day 21 post activation. A: Frequency of CD62L+ and CCR7+HA CAR+ T cells in 8 different donors. Representative histograms are shown. B: Relative frequency of central memory (CM), naïve, terminally differentiated (TEMRA) and effector memory (EM) HA CAR T cells. N=8 donors. C: Frequency of CD62L+ and CCR7+CD19.28 CAR+ T cells in 8 different donors. Representative histograms are shown. D: Relative frequency of central memory (CM), naïve, terminally differentiated (TEMRA) and effector memory (EM) CD19.28 CAR T cells. N=8 donors.
N=2-6 donors from independent experiments.
(Top) Dot plots of representative donor shown.
9A: Schematic of the experimental design. […] Graphs represent median expression of indicated markers. […] Representative donor of n=2 donor shown. […] Data are mean+SD from triplicate wells. […] 9K: Schematic of the experimental design. […] Representative donor of n=3 donor shown. […] Representative donor of n=2 donor shown. […] (Top) Dot plots of representative donor shown. […] Representative donor of n=3 donor shown. […] N=2-4 donors from independent experiments. […] N=2-6 donors from independent experiments. […] N=2-4 donors from independent experiments. […] (Top) representative dot plots shown.
Transcriptomic and epigenetic hallmarks of exhaustion occur within 10-12 days in the HA-CAR model. To determine if INO can induce a stem-like phenotype in already exhausted T cells, HA-CAR T cells were exposed to INO on day: 4, 7, 10 and 14 post-activation, analyzing phenotype and function (FIG. 9K).
HA-CAR T cells were cultured from day 4 post-activation in control media containing glucose (11 mM), inosine only at 11 mM (INO), media containing both inosine and glucose at 11 mM or media without glucose or inosine.
To assess whether the observed increase in stemness and functionality is attributable to inosine addition or glucose deprivation, HA-CAR T cells were cultured from day 4 post-activation in control media containing 11 mM glucose (CTR), no glucose and no inosine (starvation condition), 11 mM inosine only (INO), or media containing both inosine and glucose (FIG. 7A). Proliferation was assessed at day 10.

Nalm6 leukemia cells = assay: Nalm6 leukemia in NSG mice treated with CD19.28 CAR T cells (in vivo stress test); conditions: 0.2×10^6 CD19.28 CAR T cells IV day 3, manufactured in inosine vs regular media
Description: (§1) A: NSG mice were injected IV with 1×10^6 Nalm6 leukemia cells at day 0, and then 0.2×10^6 CD19.28 CAR T cells, generated in regular or inosine-supplemented media were given IV on day 3. Tumor progression was monitored using bioluminescent imaging. Scales are normalized for all time points. Data are mean+s.e.m. of n=5 mice per group. […] B: NSG mice were injected IV with 1×10^6 Nalm6-GD2+ leukemia cells at day 0, and then 2×10^6 HA CAR T cells, generated in regular or inosine-containing media were given IV on day 3. Tumor progression was monitored using bioluminescent imaging. Scales are normalized for all time points. Data are mean+s.e.m. of n=5 mice per group. […] C: Overall survival. N=5 mice per group. Survival curves were compared using the log-rank Mantel-Cox test. D: NSG mice were injected intramuscular with 1×10^6 143b tumor cells. 4 days later the mice were injected with 1×10^7 Her2, Her2 grown in INO+ media or mock T cells IV. Tumor growth was monitored by caliper measurements. […] N=3-5 mice per group. Survival curves were compared using the log-rank Mantel-Cox test.
(§2) In this example, the in vivo anti-tumor potency of CAR T cells manufactured in the presence or absence of inosine was assessed. […] Three days post tumor injection, mice were evaluated and normalized for engraftment using bioluminescent imaging. […]

[1] = system: Nalm6-GD2+ leukemia cells; assay: Nalm6-GD2+ leukemia in NSG mice treated with HA CAR T cells; assay type: in vivo; conditions: 2×10^6 HA CAR T cells IV day 3, expanded in inosine vs regular media
Description: as §1, §2

HA-CAR T cells [2] = assay: Expansion of HA-CAR T cells in media with glucose and/or inosine; inosine dose response; assay type: cell-based, human
GD2.bbz-CAR T cells = GD2.bbz-CAR T cells manufactured in GMP-grade AIM 5 media with increasing inosine; assay type: cell-based
Excerpt: FIG. 8B: Expansion rate of GD2.bbz-CAR T cells between day 3 and day 6 post-activation of CAR T cells grown in AIM 5 containing indicated concentration of inosine. N=4 donors from independent experiments.
FIG. 8C: Viability of GD2.bbz-CAR T cells cultured for 4 days in AIM 5 containing indicated concentration of inosine at day 6 post-activation. N=4 donors from independent experiments.
FIG. 8D: GD2.bbz-CAR T cells grown in media containing indicated inosine concentration between day 3 and day 8 post-activation and stimulated with 143b or Nalm6-GD2 tumor. IFNγ secretion after 24 hrs of co-culture was measured. Data are mean+s.d. of duplicate or triplicate wells. Representative of n=2 donors shown.
Next, to test this therapeutic window in the clinical context, GD2-CAR T cells were manufactured and determined to have anti-tumor activity in diffuse midline gliomas (DMGs) using GMP-grade AIM 5 media with increasing concentrations of INO (FIG. 8A).

HA-CAR T cells [3] = assay: Mass cytometry single cell metabolic regulome profiling; assay type: cell-based, human; conditions: CyTOF, day 14
Excerpt: INO cultured cells also expressed higher levels of enzymes associated with glutaminolysis (GLS, GPT2), and TCA activity (IDH1, IDH2, CS, SDHA), consistent with INO induced glutamine catabolismdriving TCA through anapleurosis (FIG. 11D). Proteins of complex I and complex V of the electron transport chain were also elevated, consistent with higher oxidative phosphorylation.

[4] = day 21, inosine supplementation

O=c1[nH]cnc2c1ncn2[C@@H]1O[C@H](CO)[C@@H](O)[C@H]1O [inosine, Inosine]
CD62L expression (HA CAR T cells): significantly enhanced CD62L expression
frequency of central memory cells (HA CAR T cells): significantly enhanced
CD62L expression (HA CAR T cells; listed as INO): enhanced CD62L expression
frequency of central memory cells (HA CAR T cells; listed as INO): enhanced
frequency of CD8+ cells (HA CAR T cells; HA CAR T cells in INO+ media vs control, day 14): increased the frequency of CD8+ cells
expression of memory markers CD62L and CCR7 (HA CAR T cells; HA CAR T cells in INO+ media, day 21): higher expression
frequency of CD8+CD62L+ HA-CAR T cells (HA CAR T cells; INO added on day 4, 7, 10 or 14 post-activation, assessed day 21): increased frequency
frequency of terminally differentiated and effector cells (HA CAR T cells; [4]): decreased frequency
percentage of naïve and central memory HA CAR T cells (HA CAR T cells; [4]): elevated percentage
CD62L levels (HA CAR T cells; flow cytometry, CD8+ and CD4+ HA-CAR T cells, day 21): higher levels
tumor growth (bioluminescent imaging) (Nalm6 leukemia cells): significantly delayed tumor growth
survival [1]: improved
tumor control [1]: improved
dose response on diminished proliferation, increased CD62L expression and increased IFNγ production (HA-CAR T cells [2]; 0-11 mM INO in RPMI containing 11 mM glucose, without a plateau): clear dose dependent effect
expansion of HA-CAR T cells (HA-CAR T cells [2]; day 4 to day 10, 11 mM INO in presence or absence of 11 mM glucose, listed as INO): diminished expansion; also recorded: significantly reduced expansion
cell proliferation (GD2.bbz-CAR T cells; AIM 5 with increasing INO, day 3 to day 6): significantly decreased cell proliferation
CAR T cell viability (GD2.bbz-CAR T cells; AIM 5 with increasing INO, day 6): no significant changes
secretion of IFNγ (GD2.bbz-CAR T cells; challenged with 143b (low GD2) or Nalm6-GD2 (high GD2), 24 hrs): increase in secretion of IFNγ
enzymes associated with glutaminolysis (GLS, GPT2) and TCA activity (IDH1, IDH2, CS, SDHA) (HA-CAR T cells [3]): higher levels
expression of CAT2 (HA-CAR T cells [3]): increased
proteins of complex I and complex V of the electron transport chain (HA-CAR T cells [3]): elevated
